12 compounds from patent US20250041306A1, “TARGETED PROTEASE DEGRADATION (TED) PLATFORM” (EUBULUS BIOTHERAPEUTICS INC., priority 2021, published 2025) can be followed below.

What is called EC50 is the midpoint of the concentration-response curve.

Common to all, as to assay type: cell-based
Assay [1] has as its system Human Colon Cancer HT-29. The assay can be described thus: Cell proliferation experiment (Alarm blue), HT-29. On the procedure:
(§1) The cells were cultured in conventional ways, and the cells should be passed for at least 2 generations before plating. Cells at the logarithmic growth phase were collected, prepared into single cell suspensions and counted. The concentration of cells was adjusted to desired concentration, and cells were inoculated into a 96-well cell culture plate at 100 μl per well. 100 μL of complete medium of the test compound were added to each well, 2 replicate wells for each concentration were set up, and diluted with a 5-fold gradient, and continued to culture for 72 h. All cells were subjected to EC50 test for corresponding samples.
(§2) The fluorescence intensity of each well was detected using the Alarm blue method, and IC50 was calculated.
(§3) IC50 was calculated according to the following formula:
(§4) [formula] • wherein Min, Max and Slope represent the minimum, maximum and slope respectively.

The test system of assay [2] is Human Colon Cancer cells Colo205. Kind of assay: Cell proliferation experiment (Alarm blue), Colo205. The procedure:
as §1, §2, §3, §4

The test system of assay [3] is Human Small Cell Lung Cancer H69. Kind of assay: Cell proliferation experiment (Alarm blue), H69. On the procedure: as §1, §2, §3, §4
The subject of assay [4] is human gastric carcinoma cells N87. Kind of assay: Cell proliferation experiment (Alarm blue), N87. On the procedure: as §1, §2, §3, §4
Assay [5] deals with Human Small Cell Lung Cancer NCI-H82. The assay can be described thus: Cell proliferation experiment (Alarm blue), H82. The procedure:
as §1, §2, §3, §4

Setting [6] is: HT-29 cells, 72 h culture, read-out: Anti cell proliferative activity EC50, HT-29.
Where [7] appears, read: Colo205 cells, 72 h culture, read-out: Anti cell proliferative activity EC50, Colo205.
Setting [8] is: H69 cells, 72 h culture, read-out: Anti cell proliferative activity EC50, H69.
Where [9] appears, read: N87 cells, 72 h culture, read-out: Anti cell proliferative activity EC50, N87.
Setting [10] is: H82 cells, 72 h culture, read-out: Anti cell proliferative activity EC50, H82.

Read-outs that look alike come from different tables or passages of the source.

`CC(C)c1cc(-c2nnc(O)n2-c2ccc3c(ccn3CCC3CCN(C(=O)NCCOCCOCCOCCOCCOCCOCCOCCOCCC(=O)N[C@@H](CSC4CC(=O)N(CCCCCC(=O)N[C@@H](C)C(=O)N[C@@H](C)C(=O)N[C@@H](CC(N)=O)C(=O)Nc5ccc(COC(=O)N(CCC#Cc6ccc7c(c6)CN(C6CCC(=O)NC6=O)C7=O)C6CCC(NC(=O)N7CCN(c8ccc(Nc9ncc(Cl)c(Nc%10ncc(Cl)c(Nc%11ccccc%11C(N)=O)n%10)n9)cc8)CC7)CC6)cc5)C4=O)C(=O)N[C@H](Cc4ccccc4)C(=O)N[C@H]4CSSC[C@@H](C(=O)N[C@H](CO)[C@@H](C)O)NC(=O)[C@H]([C@@H](C)O)NC(=O)[C@H](CCCCN)NC(=O)[C@@H](Cc5c[nH]c6ccccc56)NC(=O)[C@H](Cc5ccccc5)NC4=O)CC3)c2)c(O)cc1O` (stereo partly drawn) [UB-181289]: the EC50 was above 1000 nM in assay [1] (setting [6]); 621 nM in assay [2] (setting [7]); above 1000 nM in assay [3] (setting [8]); 698 nM in assay [4] (setting [9]); 410 nM in assay [5] (setting [10]).

`CC(C)c1cc(-c2nnc(O)n2-c2ccc3c(ccn3CCC3CCN(C(=O)CCSC4CC(=O)N(CCCCCC(=O)N[C@@H](C)C(=O)N[C@@H](C)C(=O)N[C@@H](CC(N)=O)C(=O)Nc5ccc(COC(=O)N(CCC#Cc6ccc7c(c6)CN(C6CCC(=O)NC6=O)C7=O)C6CCC(NC(=O)N7CCN(c8ccc(Nc9ncc(Cl)c(Nc%10ccccc%10C(N)=O)n9)cc8)CC7)CC6)cc5)C4=O)CC3)c2)c(O)cc1O.O=CO` (stereo partly drawn) [UB-181290]: in assay [1] (HT-29 cells, 72 h culture), the “Anti cell proliferative activity EC50, HT-29” value is reported as “insoluble”. Besides, the “Anti cell proliferative activity EC50, Colo205” value in assay [2] (Colo205 cells, 72 h culture) was “insoluble”. Moreover, the “Anti cell proliferative activity EC50, H69” value in assay [3] (H69 cells, 72 h culture) was “insoluble”. The “Anti cell proliferative activity EC50, N87” value in assay [4] (N87 cells, 72 h culture) is “insoluble”. The “Anti cell proliferative activity EC50, H82” value in assay [5] (H82 cells, 72 h culture) is on record as “insoluble”.

Take `CC(C)c1cc(-c2nnc(O)n2-c2ccc3c(ccn3CCC3CCN(C(=O)CCSSCCOC(=O)N(CCC#Cc4ccc5c(c4)CN(C4CCC(=O)NC4=O)C5=O)C4CCC(NC(=O)N5CCN(c6ccc(Nc7ncc(Cl)c(Nc8ccccc8C(N)=O)n7)cc6)CC5)CC4)CC3)c2)c(O)cc1O` (stereo not drawn) [UB-181294]: the EC50 in assay [1] (setting [6]) was 865 nM; in assay [2] (setting [7]), 301 nM; in assay [3] (setting [8]) it was above 1000 nM; in assay [4] (setting [9]), 818 nM; in assay [5] (setting [10]), 245 nM.

Take `CC(C)c1cc(-c2nnc(O)n2-c2ccc3c(ccn3CCC3CCN(C(=O)NCCOCCOCCOCCOCCOCCOCCOCCOCCC(=O)N[C@@H](CSSCCOC(=O)N(CCC#Cc4ccc5c(c4)CN(C4CCC(=O)NC4=O)C5=O)C4CCC(NC(=O)N5CCN(c6ccc(Nc7ncc(Cl)c(Nc8ccccc8C(N)=O)n7)cc6)CC5)CC4)C(=O)N[C@H](Cc4ccccc4)C(=O)N[C@H]4CSSC[C@@H](C(=O)N[C@H](CO)[C@@H](C)O)NC(=O)[C@H]([C@@H](C)O)NC(=O)[C@H](CCCCN)NC(=O)[C@@H](Cc5c[nH]c6ccccc56)NC(=O)[C@H](Cc5ccccc5)NC4=O)CC3)c2)c(O)cc1O` (stereo partly drawn) [UB-181297]: the EC50 in assay [1] (setting [6]), in assay [2] (setting [7]), in assay [3] (setting [8]), in assay [4] (setting [9]) and in assay [5] (setting [10]) was above 1000 nM each time.

As to `CNC(=O)c1ccccc1Nc1nc(Nc2ccc(N3CCN(C(=O)NC4CCC(N(CCC#Cc5ccc6c(c5)CN(C5CCC(=O)NC5=O)C6=O)C(=O)OCc5ccc(NC(=O)[C@H](CC(N)=O)NC(=O)[C@H](C)NC(=O)[C@H](C)NC(=O)CCCCCN6C(=O)CC(SC[C@H](NC(=O)[C@H](CC(=O)O)NC(=O)[C@H](CC(=O)O)NC(=O)[C@H](CCCNC(=N)N)NC(=O)[C@H](CC(=O)O)NC(=O)CCC(NC(=O)c7ccc(NCc8cnc9nc(N)[nH]c(=O)c9n8)cc7)C(=O)O)C(=O)O)C6=O)cc5)CC4)CC3)cc2)ncc1Cl` (stereo partly drawn) [UB-181298], the EC50 in assay [1] (72 h) was above 1000 nM; in assay [2] (72 h), 4.1 nM; in assay [3] (72 h) it was above 1000 nM; in assay [4] (72 h), 273 nM; in assay [5] (72 h), 8.8 nM.

Take `CNC(=O)c1ccccc1Nc1nc(Nc2ccc(N3CCN(C(=O)N[C@H]4CC[C@@H](N(CCC#Cc5ccc6c(c5)CN(C5CCC(=O)NC5=O)C6=O)C(=O)OCCSSC[C@H](N)C(=O)N[C@H](Cc5ccccc5)C(=O)N[C@H]5CSSC[C@@H](C(=O)N[C@H](CO)[C@@H](C)O)NC(=O)[C@H]([C@@H](C)O)NC(=O)[C@H](CCCCN)NC(=O)[C@@H](Cc6c[nH]c7ccccc67)NC(=O)[C@H](Cc6ccccc6)NC5=O)CC4)CC3)cc2)ncc1Cl` (stereo partly drawn) [UB-181299]: the EC50 is above 1000 nM in assay [1] (setting [6]); 302 nM in assay [2] (setting [7]); above 1000 nM in assay [3] (setting [8]); 679 nM in assay [4] (setting [9]); 246 nM in assay [5] (setting [10]).

For the compound `NC(=O)c1ccccc1Nc1nc(Nc2ccc(N3CCN([C@H]4CC[C@@H](NCCC#Cc5ccc6c(c5)CN(C5CCC(=O)NC5=O)C6=O)CC4)CC3)cc2)ncc1Cl` (stereo partly drawn) [UB-181315], the EC50 in assay [1] (Homo sapiens, HT-29 cells, 72 h culture, read-out: Anti cell proliferative activity EC50, HT-29) was above 1000 nM; in assay [2] (Homo sapiens, COLO 205, Colo205 cells, 72 h culture, read-out: Anti cell proliferative activity EC50, Colo205), 723 nM; in assay [3] (Homo sapiens, NCI-H69, H69 cells, 72 h culture, read-out: Anti cell proliferative activity EC50, H69), above 1000 nM; in assay [4] (Homo sapiens, N87 cells, 72 h culture, read-out: Anti cell proliferative activity EC50, N87), above 1000 nM; in assay [5] (Homo sapiens, NCI-H82, H82 cells, 72 h culture, read-out: Anti cell proliferative activity EC50, H82) it was 314 nM.

As to `CNC(=O)c1ccccc1Nc1nc(Nc2ccc(N3CCN(C(=O)N[C@H]4CC[C@@H](N(CCC#Cc5ccc6c(c5)CN(C5CCC(=O)NC5=O)C6=O)C(=O)OCCSSC[C@H](NC(=O)[C@H](CC(=O)O)NC(=O)[C@H](CC(=O)O)NC(=O)[C@H](CCCNC(=N)N)NC(=O)[C@H](CC(=O)O)NC(=O)CCC(NC(=O)c5ccc(NCc6cnc7nc(N)[nH]c(=O)c7n6)cc5)C(=O)O)C(=O)O)CC4)CC3)cc2)ncc1Cl` (stereo partly drawn) [UB-181321], the EC50 in assay [1] (72 h) was above 1000 nM; in assay [2] (72 h), 239 nM; in assay [3] (72 h), above 1000 nM; in assay [4] (72 h), above 1000 nM; in assay [5] (72 h), 171 nM.

Take `N=C(N)NCCC[C@H](NC(=O)[C@H](CC(=O)O)NC(=O)CC[C@H](NC(=O)c1ccc(NCc2cnc3nc(N)[nH]c(=O)c3n2)cc1)C(=O)O)C(=O)N[C@@H](CC(=O)O)C(=O)N[C@@H](CC(=O)O)C(=O)N[C@@H](CSSCCOC(=O)N(CCC#Cc1ccc2c(c1)CN(C1CCC(=O)NC1=O)C2=O)C1CCC(NC(=O)N2CCN(c3ccc(Nc4ncc(Cl)c(Nc5ccccc5C(N)=O)n4)cc3)CC2)CC1)C(=O)O` (stereo partly drawn) [UB-181327]: the EC50 in assay [1] (setting [6]) is 855 nM; in assay [2] (setting [7]) it was 243 nM; in assay [3] (setting [8]) it was above 1000 nM; in assay [4] (setting [9]), above 1000 nM; in assay [5] (setting [10]), 283 nM.

On to `CC[C@@H]1C(=O)N(C)c2cnc(Nc3ccc(-c4cn([C@H]5CC[C@@H](N(CCOCCC#Cc6cccc7c6CN(C6CCC(=O)NC6=O)C7=O)C(=O)OCc6ccc(NC(=O)[C@H](CC(N)=O)NC(=O)[C@H](C)NC(=O)[C@H](C)NC(=O)CCCCCN7C(=O)CC(SC[C@H](N)C(=O)N[C@@H](Cc8ccccc8)C(=O)N[C@H]8CSSC[C@@H](C(=O)N[C@H](CO)[C@@H](C)O)NC(=O)[C@H]([C@@H](C)O)NC(=O)[C@H](CCCCN)NC(=O)[C@@H](Cc9c[nH]c%10ccccc9%10)NC(=O)[C@H](Cc9ccccc9)NC8=O)C7=O)cc6)CC5)nn4)cc3OC)nc2N1C1CCCC1` (stereo partly drawn) [UB-181334], for which the EC50 was above 1000 nM in assay [1] (72 h); 286 nM in assay [2] (72 h); 955 nM in assay [3] (72 h); 927 nM in assay [4] (72 h); 989 nM in assay [5] (72 h).

On to `CC[C@@H]1C(=O)N(C)c2cnc(Nc3ccc(-c4cn([C@H]5CC[C@@H](N(CCOCCC#Cc6cccc7c6CN(C6CCC(=O)NC6=O)C7=O)C(=O)OCCSSC[C@H](NC(=O)[C@H](CC(=O)O)NC(=O)[C@H](CC(=O)O)NC(=O)[C@H](CCCNC(=N)N)NC(=O)[C@H](CC(=O)O)NC(=O)CC[C@H](NC(=O)c6ccc(NCc7cnc8nc(N)[nH]c(=O)c8n7)cc6)C(=O)O)C(=O)O)CC5)nn4)cc3OC)nc2N1C1CCCC1` (stereo partly drawn) [UB-181336], for which the EC50 in assay [1] (72 h), in assay [2] (72 h), in assay [3] (72 h), in assay [4] (72 h) and in assay [5] (72 h) was above 1000 nM in each case.

For the compound `CC[C@@H]1C(=O)N(C)c2cnc(Nc3ccc(-c4cn([C@H]5CC[C@@H](N(CCOCCC#Cc6cccc7c6CN(C6CCC(=O)NC6=O)C7=O)C(=O)OCc6ccc(NC(=O)[C@H](CC(N)=O)NC(=O)[C@H](C)NC(=O)[C@H](C)NC(=O)CCCCCN7C(=O)CC(SC[C@H](NC(=O)[C@H](CC(=O)O)NC(=O)[C@H](CC(=O)O)NC(=O)[C@H](CCCNC(=N)N)NC(=O)[C@H](CC(=O)O)NC(=O)CCC(NC(=O)c8ccc(NCc9cnc%10nc(N)[nH]c(=O)c%10n9)cc8)C(=O)O)C(=O)O)C7=O)cc6)CC5)nn4)cc3OC)nc2N1C1CCCC1` (stereo partly drawn) [UB-181337], the EC50 in assay [1] (72 h) worked out at 233 nM; in assay [2] (72 h), 33.1 nM; in assay [3] (72 h), 79.3 nM; in assay [4] (72 h) it was 175 nM; in assay [5] (72 h), 183 nM.
